In patent US10590496B2, “Composition for preventing and treating degenerative brain disease using novel lactic acid bacteria” (WEDEA INC., priority 2016, dated 2020):

Experiments:
IL-4 = IL-4 production amount in cultured spleen cells (ELISA); type: in vivo, Balb/c based male mice; settings: single agents 100 mg/kg, mixture sample 50 and 100 mg/kg, orally for 14 days
Description: (§1) Balb/c based male mice (8 weeks old) were divided into a vehicle control group, a group in which 5-aminolevulinic acid (hereinafter, referred as ‘ALA’, 100 mg/kg) was orally administered for 14 days (2 weeks), a group in which Lactobacillus reuteri ELF (hereinafter, referred to as ‘LAB’, 100 mg/kg) was orally administered for 14 days (2 weeks), a group in which a mixture sample (50 mg/kg) of Lactobacillus reuteri ELF and 5-aminolevulinic acid (hereinafter, referred to as ‘ALA+LAB’) was orally administered for 14 days (2 weeks), and a group in which the mixture sample (100 mg/kg) of Lactobacillus reuteri ELF and 5-aminolevulinic acid was orally administered for 14 days (2 weeks).
(§2) After 2 weeks of administration, the spleen was harvested from the mice, and spleen cells were isolated with a 100 mesh filter. Before one day of measurement, anti-CD3 mAb (1 μg/ml) was coated on a 96-well plate and kept overnight in a refrigerator at 4° C., and the 96-well plate was washed with D-PBS two times. […] Levels of IFN-γ, IL-2, IL-4, and IL-10 in the culture supernatant were measured by enzyme-linked immuno-sorbent assay (ELISA). […] Thereafter, absorbance was measured at 450 nm in an ELISA reader.

CD3 T cells = experiment: Flow cytometry, frequency of CD3 T cells; type: in vivo, Balb/c based male mice; settings: 100 mg/kg orally for 14 days
CD4^+ CD25^+ cells = experiment: Flow cytometry, frequency of CD4^+ CD25^+ cells; type: in vivo, Balb/c based male mice; settings: 100 mg/kg orally for 14 days
Description: as §1
(§3) After 2 weeks of administration, in order to obtain PBMC in the mice, the blood was extracted using a syringe (3 ml) treated with heparin by a cardiac puncture method. The extracted blood was mixed and treated with 10 ml of ACK solution (a solution obtained by mixing 8.3 g of NH4Cl and 1 g of KHCO3 with demineralized water to which 0.1 Mm EDTA was added) prepared in advance at room temperature for 5 minutes, thereby removing red blood cells. […] Thereafter, the resultants were washed with PBS three times or more, and frequencies (%) of activated CD4^+ CD25^+, CD44^+ CD69^+, CD49b^+ NK1.1^+, and CD25^+ CTLA-4^+ cells were analyzed using a cell quest program of flow cytometry.

activated Th lymphocytes = experiment: Flow cytometry of activated Th lymphocytes in PBMC; type: in vivo, Balb/c based male mice; settings: 100 mg/kg orally for 14 days
Description: as §1, §3

NKG2D = experiment: Flow cytometry, frequency of NKG2D, bioactive marker of NK cells; type: in vivo, Balb/c based male mice; settings: 100 mg/kg orally for 14 days
Gr-1/CD11b cells = experiment: Flow cytometry, frequency of Gr-1/CD11b cells; type: in vivo, Balb/c based male mice; settings: 100 mg/kg orally for 14 days
[1] = system: peritoneal cell population; experiment: Proliferation of peritoneal cell population (number of lymphocytes); type: in vivo, Balb/c based mice; settings: abdominal cavity, orally for 14 days
Description: Balb/c based mice were divided into a vehicle control group, a group in which 5-aminolevulinic acid (100 mg/kg) was orally administered for 14 days (2 weeks), a group in which Lactobacillus reuteri ELF (100 mg/kg) was orally administered for 14 days (2 weeks), a group in which a mixture sample (50 mg/kg) of Lactobacillus reuteri ELF and 5-aminolevulinic acid was orally administered for 14 days (2 weeks), and a group in which the mixture sample (100 mg/kg) of Lactobacillus reuteri ELF and 5-aminolevulinic acid was orally administered for 14 days (2 weeks). Two days before termination of administration, 0.5 ml of 2% normal saline suspension of starch was injected into the abdominal cavity of the mice to thereby be immunized. The mice were sacrificed, and the abdomen was disinfected with alcohol. […] After recovered cells were cooled, washed with the same HBSS solution two times, the number of peritoneal cells existing therein was directly measured using a hemocytometer under a microscope. […] Thereafter, the resultants were washed with PBS three times or more, and frequencies (%) of activated CD11b^+ CD14^+, CD3^+ CD4^+, and CD3^+ CD8^+ cells were analyzed using the Cell Quest program of a flow cytometry, and a total cell count was applied thereto, thereby calculating the absolute number of peritoneal cell population.

[2] = system: nitrogen oxide (NO) in macrophage; experiment: Nitrogen oxide (NO) formation in macrophage; type: in vivo, Balb/c based mice; settings: 100 mg/kg orally for 14 days; peritoneal macrophages cultured 72 hours
Description: Balb/c based mice were divided into a vehicle control group, a group in which 5-aminolevulinic acid (100 mg/kg) was orally administered for 14 days (2 weeks), a group in which Lactobacillus reuteri ELF (100 mg/kg) was orally administered for 14 days (2 weeks), a group in which a mixture sample (50 mg/kg) of Lactobacillus reuteri ELF and 5-aminolevulinic acid was orally administered for 14 days (2 weeks), and a group in which the mixture sample (100 mg/kg) of Lactobacillus reuteri ELF and 5-aminolevulinic acid was orally administered for 14 days (2 weeks). Three days before termination of administration, after 1.5 ml of 10% proteose peptone (Difco) aqueous solution was administered into the abdominal cavity of the mice, the mice were sacrificed, and the abdomen was disinfected with alcohol. The skin of the abdomen was cut using scissors, and the peritoneum was exposed. Then, 4.5 ml of cooled Hanks' balanced salt solution (HBSS) was injected into the abdominal cavity using a syringe and abdominal massage was performed thereon for 30 seconds, followed by recovering a peritoneal washing fluid using a syringe. […] In addition, after 200 μl of […] reagent II in which 0.06 g of N-1-naphthylene amidehydrochloride was dissolved in 50 ml of distilled water was rapidly added thereto, and stirred, absorbance was measured at 540 nm.

IL-2 = IL-2 production amount in cultured spleen cells (ELISA); type: in vivo, Balb/c based male mice; settings: single agents 100 mg/kg, mixture sample 50 and 100 mg/kg, orally for 14 days
Description: as §1, §2

[3] = system: IFN-γ, IL-2, IL-4, and IL-10; experiment: ELISA absorbance of culture supernatant of spleen cells (cytokine not specified); type: in vivo, Balb/c based male mice; settings: 100 mg/kg orally for 14 days; spleen cells on anti-CD3 mAb, 48 hours
Description: as §1, §2

IFN-γ = IFN-γ production amount in cultured spleen cells (ELISA); type: in vivo, Balb/c based male mice; settings: single agents 100 mg/kg, mixture sample 50 and 100 mg/kg, orally for 14 days
Description: as §1, §2

[4] = system: cytochrome c oxidase (COX); experiment: COX activity in liver mitochondria; type: in vivo, Balb/c based mice; settings: 100 mg/kg orally for 14 days
Description: Balb/c based mice were divided into a vehicle control group, a group in which 5-aminolevulinic acid (100 mg/kg) was orally administered for 14 days (2 weeks), a group in which Lactobacillus reuteri ELF (100 mg/kg) was orally administered for 14 days (2 weeks), and a group in which the mixture sample (100 mg/kg) of Lactobacillus reuteri ELF and 5-aminolevulinic acid was orally administered for 14 days (2 weeks). In order to measure cytochrome c oxidase (COX) activity in the liver mitochondria of the mouse after administration, proteins were extracted from the liver cells of the mouse and measured using a COX activity assay kit (TA100, Toyo B Net).

**Q.** What does the source list for NCC(=O)CCC(=O)O [5-aminolevulinic acid]?
**A.** IL-4 production amount as compared to control group (NC) (IL-4): slightly increased; frequency of CD3 T cells as compared to the control group (CD3 T cells): increased; frequency of CD4^+ CD25^+ cells as compared to the control group (CD4^+ CD25^+ cells): significantly increased; frequency of activated Th lymphocytes in PBMC, increase as compared to the negative control group (activated Th lymphocytes): ≥ 46.2%; frequency of NKG2D as compared to the control group (NKG2D): significantly increased; frequency of Gr-1/CD11b cells as compared to the control group (Gr-1/CD11b cells): significantly increased; number of lymphocytes as compared to the control group [1]: increased; nitrogen oxide (NO) production amount as compared to the control group (NC) [2]: statistically significantly increased; IL-2 production amount as compared to control group (NC) (IL-2): slightly increased; ELISA absorbance at 450 nm relative to control group (NC) [3]: increased two times or more; IFN-γ production amount as compared to control group (NC) (IFN-γ): slightly increased; COX activity in liver mitochondria relative to control group [4]: increased by two times or more
